# Laboratory results as given in PubChem BioAssay (NCI).
#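 Five concentrations, 48 hours, 96-well plates. GI50 is the concentration that inhibits growth by half. TGI denotes the concentration required for complete inhibition of growth.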
# How the values were obtained:
# Experiment in all cases: inhibition of tumour cell growth, NCI panel, 48 h
# OVCAR-5 ovarian = system: OVCAR-5 ovarian
# UACC-62 melanoma = system: UACC-62 melanoma
# KM12 colon = system: KM12 colon
# HCT-116 colon = system: HCT-116 colon
# IGROV1 ovarian = system: IGROV1 ovarian
# MDA-MB-231 breast = system: MDA-MB-231 breast
# OVCAR-3 ovarian = system: OVCAR-3 ovarian
# TK-10 renal = system: TK-10 renal
# SK-MEL-28 melanoma = system: SK-MEL-28 melanoma
# HCC-2998 colon = system: HCC-2998 colon
SMILES,GI50 (OVCAR-5 ovarian),TGI (OVCAR-5 ovarian),GI50 (UACC-62 melanoma),TGI (UACC-62 melanoma),GI50 (KM12 colon),TGI (KM12 colon),GI50 (HCT-116 colon),TGI (HCT-116 colon),GI50 (IGROV1 ovarian),TGI (IGROV1 ovarian),GI50 (MDA-MB-231 breast),TGI (MDA-MB-231 breast),GI50 (OVCAR-3 ovarian),TGI (OVCAR-3 ovarian),GI50 (TK-10 renal),TGI (TK-10 renal),GI50 (SK-MEL-28 melanoma),TGI (SK-MEL-28 melanoma),TGI (HCC-2998 colon),GI50 (HCC-2998 colon)
Clc1nc(Cl)c2ncn(-c3ccccc3)c2n1,15 µM,30.4 µM,11.3 µM,25.3 µM,12.8 µM,25.8 µM,2 µM,4.69 µM,1.66 µM,3.38 µM,10.7 µM,24.5 µM,1.69 µM,3.46 µM,7.46 µM,20.9 µM,4.69 µM,17.3 µM,,
COC(=O)C1c2cc3c(c(O)c2CCC1(C)O)C(=O)c1c(O)cc2c(c1C3=O)OC1OC2(C)C(O)C(N(C)C)C1O (stereo unspecified),,1.03 µM,,1.91 µM,,1.52 µM,,24.2 µM,,2.35 µM,,1.69 µM,,1.62 µM,,1.66 µM,,15.7 µM,,
O=C(O)CN1C(=O)OC(c2ccccc2)C1=O (stereo unspecified),,> 100 µM,,> 100 µM,,> 100 µM,,> 100 µM,,> 100 µM,,> 100 µM,,> 100 µM,,> 100 µM,,> 100 µM,,
CCN(N=O)C1C2(CCCC2)NC(=O)C12CCCC2 (stereo unspecified),,> 100 µM,,> 100 µM,,> 100 µM,,> 100 µM,,> 100 µM,,,,> 100 µM,,> 100 µM,,> 100 µM,> 100 µM,
CC(=O)OCc1nnn2c1C(OC(C)=O)CC2 (stereo unspecified),,> 100 µM,,> 100 µM,,> 100 µM,,> 100 µM,,> 100 µM,,,,> 100 µM,,> 100 µM,,> 100 µM,> 100 µM,
O=S(=O)(NCCNc1nccc(-c2c(-c3ccc(F)cc3)nc3sccn23)n1)c1ccc(O)cc1,11.8 µM,> 100 µM,2.35 µM,18.8 µM,2.05 µM,14.2 µM,1.43 µM,22.1 µM,1.7 µM,13.7 µM,7.77 µM,70.1 µM,,,4.81 µM,26.3 µM,4.4 µM,37.8 µM,51.1 µM,15.5 µM
CCOC(=O)CCc1c(C)c2c(OC)cc(OC)cc2oc1=O,,> 100 µM,,,,> 100 µM,,> 100 µM,,,,,,> 100 µM,,> 100 µM,,> 100 µM,> 100 µM,
COC(=O)C1C(C(=O)O)C2(c3ccccc3)C(=O)C1(c1ccccc1)C(c1ccc(OC)cc1)=C2c1ccc(OC)cc1 (stereo unspecified),20.8 µM,45.9 µM,18.8 µM,35.2 µM,27 µM,74.6 µM,17.3 µM,33.6 µM,19.9 µM,45.8 µM,24 µM,54.5 µM,17.3 µM,41.2 µM,31.8 µM,> 100 µM,,,27.8 µM,13.9 µM
Cc1[nH]c(=O)n2c(C)nnc2c1C(=O)O,,> 100 µM,,> 100 µM,,> 100 µM,,> 100 µM,,> 100 µM,,,,> 100 µM,,> 100 µM,,> 100 µM,,
CCOC(=O)C(C(=O)OCC)=C1C=C(c2ccccc2)c2ccccc21,,> 100 µM,,> 100 µM,,> 100 µM,,> 100 µM,,> 100 µM,,,,> 100 µM,,> 100 µM,,> 100 µM,> 100 µM,
CC(=O)[O-].CC(=O)[O-].O=C([CH-]C(=O)c1ccccc1)c1ccccc1.[Nd+3].[OH3+],68.4 µM,> 100 µM,16.5 µM,48.6 µM,14 µM,> 100 µM,19.7 µM,> 100 µM,28.5 µM,> 100 µM,,,10.7 µM,33.5 µM,27 µM,87.6 µM,23.3 µM,81.2 µM,> 100 µM,25 µM
C[C@@H](NC1CCCC[C@@H]1O)c1ccccc1 (stereo partly specified),,> 100 µM,,> 100 µM,,> 100 µM,,> 100 µM,,> 100 µM,,,,> 100 µM,,> 100 µM,,> 100 µM,> 100 µM,
Cc1ccc2ncnc(N(C)C3CCCCC3)c2c1,41.2 µM,> 100 µM,31.9 µM,> 100 µM,35.6 µM,> 100 µM,36.7 µM,> 100 µM,34.1 µM,> 100 µM,,,23.3 µM,54.5 µM,36 µM,> 100 µM,40 µM,> 100 µM,70.2 µM,28.8 µM
CCOC(=O)c1c(C)n([O-])c2cc(F)c(F)cc2[n+]1=O,1.78 µM,3.2 µM,1.47 µM,2.91 µM,15.4 µM,35.6 µM,0.351 µM,1.28 µM,0.491 µM,,0.955 µM,2.58 µM,1.1 µM,2.42 µM,17.4 µM,32.5 µM,1.24 µM,2.58 µM,,
